The text below walks through data of patent US20180236089A1, “RADIATION EMITTING PEPTIDE NUCLEIC ACID CONJUGATES AND USES THEREOF FOR DIAGNOSIS, IMAGING, AND TREATMENT OF DISEASES, CONDITIONS AND DISORDERS” (Yissum Research Development Company of the Hebrew …, priority 2015, published 2018).

Where “and” joins values, the source holds several entries; their conditions need not be identical. Identical values can stand only once. Where no end group is shown, it is not given here. [ ]: non-standard residue; d: D form. BisQ = dye (BisQ) placed in the PNA in place of a base

A short description of data set [1]: UV-Vis absorption of BisQ, TO and PNA FIT probes, alone or hybridized to DNA. To be noted: for λmaxabs: UV-Vis spectrum, maximal absorption. The data set is classed as physicochemical.
The test system of a further data set is Panc-1 cells. The data set is described as follows: Hybridization and imaging in living cells (confocal microscopy), Panc-1. The data set is classed as cell-based, human. Conditions: Panc-1 expressing mutated KRAS, 0.5 μM, 3 hours. As for the experimental part: (§1) Three cell lines were used: Panc-1, BxPC-3 (human pancreatic carcinoma, epithelial-like), and HT-29 (human colon adenocarcinoma grade II). Cell lines were purchased from the American Type Culture Collection (ATCC, Manassas, Va., USA). Panc-1 and HT-29 expressing mutated and wild type KRAS, respectively, were cultured (37° C., 5% CO2), in DMEM medium and supplemented with 10% fetal calf serum, 2 mM L-glutamine, and 0.1 mg/mL Streptomycin (Beit Haemek Biological Industries, Israel). BxPC-3 cells expressing wild type KRAS were cultured in RPMI 1640 medium supplemented with 10% fetal calf serum, 2 mM L-glutamine, and 0.1 mg/mL Streptomycin.
(§2) Twenty four hours prior to PNA addition, Panc-1, HT-29, and BxPC-3 were plated separately on chamber slides (Ibidi GmbH, Munich, Germany) until reaching 70-80% confluence.
(§3) Before adding the PNAs, the medium was replaced and the cells were incubated (37° C., humidified atmosphere containing 5% CO2) with 0.5 μM of PNA1 and PNA2 in complete medium. Cells were washed with PBS (×3) prior to cell imaging and the intracellular fluorescence was measured after 3 hours by confocal microscopy. Design and synthesis of a new surrogate base (BisQ) with the unique feature of far-red emission. BisQ was introduced into PNAs that targets the mutated kRAS oncogene.

The next data set relates to HT-29 cells. As to the kind of experiment: Hybridization and imaging in living cells (confocal microscopy), HT-29. The data set is classed as cell-based, human. To be noted: HT-29 expressing wild type KRAS, 0.5 μM, 3 hours. As for the experimental part: as §1, §2, §3
Another data set concerns BxPC-3 cells. The data set is described as follows: Hybridization and imaging in living cells (confocal microscopy), BxPC-3. Conditions: BxPC-3 expressing wild type KRAS, 0.5 μM, 3 hours. It counts as cell-based, human. As for the experimental part:
as §1, §2, §3

Consider `CN1C(=Cc2cc[n+](C)c3ccccc23)Sc2ccccc21` [TO, thiazole orange, reference compound], for which, in data set [1], the εmax is recorded as 43,000 M^−1cm^−1 and the λmaxabs is 505 nm.
As to “(D-Lys)4-CCTCGACT[BisQ]CCGCATCC-NH2 (chain 1 [dK][dK][dK][dK]CCTCGACT-BisQ; numbers in words are those of the source; cysteine pairing not given here; also: PNA (peptide nucleic acid), BisQ joins chain 1 and chain 2 within one strand) [PNA2, BisQ paired with T; PNA FIT probe targeting mutated KRAS]”, the εmax in data set [1] is on record as 82,219 M^−1cm^−1. Moreover, the λmaxabs in data set [1] turned out to be 593 nm. Moreover, the intracellular red fluorescence entry with Panc-1 cells, in the data set with HT-29 cells and with BxPC-3 cells was “red emission solely in Panc-1 cells” throughout.
Take “(D-Lys)4-CCTCGA[BisQ]TACCGCATCC-NH2 (chemistry not fully specified) [PNA1, BisQ paired with G; PNA FIT probe targeting mutated KRAS]”: in data set [1], the εmax is 83,000 M^−1cm^−1; the λmaxabs was 591 nm and 588 nm.
On to Fmoc-Aeg(Dy)-OH [BisQ], for which, in data set [1], the εmax is 41,370 M^−1cm^−1 and the λmaxabs turned out to be 591 nm.
